Patent US8158577B2, “Modulation of cartilage homeostasis by active domains of cell binding extracellular matrix molecules” (priority 2004, dated 2012)
“Also recorded” adds a separate entry of the source.

Experiments:
K105 cells [1] = experiment: Effect on K105 cells already adherent to chondroadherin, light microscopy time study (FIG. 7, 9, 10); format: cell-based, human; conditions: for spreading and aggregation or detaching of k105 cells adherent to chondroadherin (FIG. 10): peptide, anti β1 antibody or 5 mM EDTA added after 30 min, light microscopy after 1 and 3 hours; for spreading, migration and aggregation of k105 cells adherent to chondroadherin: peptide 250 μg/ml added after 30 min adhesion, light microscopy after 1, 3 and 20 hours
Experimental: (§1) To test cell binding, the chondrosarcoma cells or bovine chondrocytes were suspended in PBS containing 0.1% BSA, 25 U/ml collagenase and added to the wells (50,000/well), in the absence or presence of various peptide pools or the synthetic peptides (200, 100, 50, 25, 12.5 μg/ml). Non-adherent cells were removed after 1 hour and adhesion was determined by measuring lysosomal N-acetylglucosaminidase (12). Adhesion and spreading was visualized by light microscopy. In the time studies, k105 cells were allowed to adhere for 30 minutes, unbound cells were removed and medium without serum supplemented with or without peptides (250 μg/ml), β1 integrin antibody (clone P4C10, Gibco BRL), EDTA (5 mM) was added. Cell morphology was visualized by light microscopy after 1, 3 and 20 hours.
Tissue culture dishes were coated with 5 μg/ml chondroadherin expressed in E. coli and blocked for non-specific binding with BSA. The k105 cells were suspended in PBS containing 0.1% BSA, and added to the wells (50,000/well). Nonadherent cells were removed after 30 min by washing, plain medium without serum with or without peptides (250 μg/ml) was added and bound cells were visualized by light microscopy after 1, 3 and 20 hours.
Tissue culture dishes were coated with 5 μg/ml chondroadherin expressed in E. coli and blocked for non-specific binding with BSA. The cells were suspended in PBS containing 0.1% BSA, and added to the wells (50,000/well). Nonadherent cells were removed after 30 min by washing, plain medium without serum with or without peptides (250 μg/ml) was added and bound cells were visualized by light microscopy after 1, 3 and 20 hours. […] The activity for integrin binding is located in the C-terminal eight residues of the sequence involving the WLEAK (SEQ ID No. 1) sequence.
Tissue culture dishes were coated with 5 μg/ml chondroadherin expressed in E. coli and blocked for non-specific binding with BSA. The k105 cells were suspended in PBS containing 0.1% BSA, and added to the wells (50,000/well). Nonadherent cells were removed after 30 min by washing, peptide, anti β1 antibody, 5 mM EDTA or plain medium without serum was added and bound cells were visualized by light microscopy after 1 and 3 hours.

K105 cells [2] = experiment: Adhesion of K105 cells to chondroadherin in the presence of synthetic peptide (FIG. 3, 5A-5B, 13); format: cell-based, human; conditions: 1 hour at 37° C.; for adhesion of k105 cells to chondroadherin in the presence of peptide: peptide 200, 100, 50, 25, 12.5 μg/ml
Experimental: Human cells (K9) originating from a human chondrosarcoma were a kind gift from Drs. Sven Inerot and Anders Lindahl, The Salgrenska University Hospital Gothenburg, Sweden. The K9 cells were cultured in Dulbeccos Modified Eagle Medium: Nutrient Mixture F12 (DMEM/F12 1:1) with GLUTAMAX I, supplemented with 10% fetal calf serum, 25 μg/ml ascorbic acid, 50 IU of penicillin and 50 μg/ml streptomycin (Life Technologies, Inc.). A different human cells line (K105) originating from a human chondrosarcoma was a kind gift from Dr. Sven Inerot, The Salgrenska University Hospital, Gothenburg, Sweden. The K105 cells were cultured in a mix of 40% Dulbeccos Modified Eagle Medium, 40% Minimum Essential Media (MEM) alpha Medium, 10% Nutrient Mixture F1 supplemented with 100 nM hydrocortisone, 100 ng/ml insulin, 10% fetal calf serum, 25 μg/ml ascorbic acid, 50 IU of penicillin and 50 μg/ml streptomycin (Life Technologies, Inc.). To harvest cells, culture dishes were rinsed three times with Ca^2+/Mg^2+-free PBS and the cells were incubated with 0.5% trypsin and 1 mM EDTA for 5 min. Detached cells were suspended in PBS containing 1 mg/ml trypsin inhibitor (Sigma) and then washed in PBS. To remove membrane-bound collagens the cells were treated with collagenase 100 U/ml (CLSPA; Worthington Biochemical Corp., Lakewood, N.J.) in PBS, 30 min. 37° C. and then washed in PBS.
(§2) Tissue culture 48-wells dishes (Nunclon, Nunc, Denmark) were coated overnight with 5 μg/ml chondroadherin in 4M Guanidine-HCl, 50 mM sodium acetate, pH 5.8, or for native protein in PBS. Alternatively coating was with 5 μg/ml collagen type II in PBS followed by after-coating with 0.5% BSA in PBS for 3 hours. Collagen type II was isolated from bovine nasal cartilage by pepsin digestion (11). Bacterially expressed chondroadherin was isolated as described above. Recombinant chondroadherin expressed in EBNA cell was cloned and purified as described elsewhere (8).
as §1
Study design: Tissue culture dishes (48-wells) were coated with 5 μg/ml chondroadherin expressed in E. coli and blocked for non-specific binding with BSA. […] were suspended in PBS containing 0.1% BSA, 25 U/ml collagenase and added to the wells (50,000/well) in the presence of synthetic peptide to be tested and allowed to adhere for 1 hour at 37° C. Nonadherent cells were removed by washing, and adhesion was determined by analyzing lysosomal hexosaminidase.
A 12-mer peptide (1947.01) plus an N-terminal cysteine (CQLRGLRRWLEAK) (SEQ ID NO. 3) representing the candidate sequence identified by mass spectrometry were synthesized and its ability to inhibit cell adhesion was determined. Tissue culture dishes were coated with 5 μg/ml chondroadherin expressed in E. coli and blocked for non-specific binding with BSA. The cells were suspended in PBS containing 0.1% BSA, 25 U/ml collagenase and added to the wells (50,000/well) in the presence of synthetic peptide (200, 100, 50, 25, 12.5 μg/ml) and allowed to adhere for 1 hour at 37° C. Nonadherent cells were removed by washing, and adhesion was determined by analyzing lysosomal hexosaminidase. […]

K105 cells [3] = experiment: Adhesion of K105 cells to collagen type II in the presence of synthetic peptide (FIG. 5C-5D); format: cell-based, human; conditions: peptide 250 μg/ml, 1 hour at 37° C.
Experimental: as §2
(§3) To test cell binding, the chondrosarcoma cells or bovine chondrocytes were suspended in PBS containing 0.1% BSA, 25 U/ml collagenase and added to the wells (50,000/well), in the absence or presence of various peptide pools or the synthetic peptides (200, 100, 50, 25, 12.5 μg/ml). Non-adherent cells were removed after 1 hour and adhesion was determined by measuring lysosomal N-acetylglucosaminidase (12). Adhesion and spreading was visualized by light microscopy. […]
Tissue culture dishes were coated with 5 μg/ml chondroadherin expressed in E. coli or collagen type II and blocked for non-specific binding with BSA. […] Spreading was visualized by light microscopy, and adhesion was determined by analyzing lysosomal hexosaminidase. Adhesion is expressed as number of cells where the data represent the average of two wells. […]

bovine chondrocytes = experiment: Adhesion of bovine chondrocytes to human chondroadherin with or without cell binding peptides (FIG. 6); format: cell-based; conditions: peptide 250 μg/ml, 1 hour at 37° C., 100,000 cells/well
Experimental: Bovine chondrocytes were isolated by collagenase (CLS1; Worthington Biochemical Corp., Lakewood, N.J.) digestion of articular cartilage from 4-6 month old calves as described (10). Briefly, cartilage slices were digested for 16 hours with collagenase in EBSS (Earle's balanced salt solution, GIBCO BRL Gaithersburg, Md.). The cells were filtered through a 100 μm nylon filter, washed three times in PBS containing 0.2% BSA (SERVA).
as §3
Tissue culture dishes were coated with 5 μg/ml chondroadherin expressed in E. coli or collagen type II and blocked for non-specific binding with BSA. […] Adhesion was determined by analyzing lysosomal hexosaminidase. Adhesion is expressed as number of cells, 100,000 cells/well was seeded. […]

K105 cells [4] = experiment: Adhesion of K105 cells to the coated cell binding peptides (FIG. 8); format: cell-based, human
Experimental: Tissue culture dishes were coated with 33 μg/ml (20 µM) peptide solution. The cells (50,000/well) were suspended in PBS containing 0.1% BSA, 25 U/ml collagenase and added to the wells in the presence or absence of synthetic peptide (250 μg/ml) and allowed to adhere for 1 hour at 37° C. Nonadherent cells were removed by washing. Spreading was visualized by light microscopy.

Molecule: O=C(O)CN(CCN(CC(=O)O)CC(=O)O)CC(=O)O [EDTA, reference compound]
- spreading and aggregation or detaching of k105 cells adherent to chondroadherin (FIG. 10) (K105 cells [1]): cells detaching

Molecule: Ac-[CQLRGLRRWLEAKASRPDATC]-NH2 (Ac-CQLRGLRRWLEAKASRPDATC-NH2; also: cyclised (brackets), bond type not given here; listed as Homo sapiens) [SEQ ID No. 12]
- inhibitory effect on K105 cell adhesion to chondroadherin (Example II, FIG. 13) (K105 cells [2]): inhibitory effect

Molecule: CQLRGLRRWLEAK (N-terminal cysteine; listed as Homo sapiens) [12-mer peptide plus an N-terminal cysteine]
- k105 cell adhesion to chondroadherin in the presence of peptide (K105 cells [2]; peptide 250 μg/ml): decreased
- adhesion of k105 cells to chondroadherin in the presence of peptide (K105 cells [2]): able to inhibit
- adhesion of k105 cells to chondroadherin in the presence of peptide (K105 cells [2]; listed as 12-mer peptide): decreased in a dose dependent manner
- k105 cell adhesion to collagen type II in the presence of peptide (K105 cells [3]): not significantly affected
- bovine chondrocyte adhesion to chondroadherin in the presence of peptide (bovine chondrocytes): decreased
- adhesion and shape of k105 cells plated on the peptide (K105 cells [4]; dishes coated with 33 μg/ml peptide, 1 hour at 37° C.): adhere and remain round
- inhibition of k105 adhesion to the coated peptide by the same peptide in solution (K105 cells [4]; peptide in solution 250 μg/ml): inhibited
- spreading, migration and aggregation of k105 cells adherent to chondroadherin (K105 cells [1]): stimulated the cells to form aggregate; also recorded: prevented spreading and induced cells to form aggregate
- spreading and aggregation or detaching of k105 cells adherent to chondroadherin (FIG. 10) (K105 cells [1]): prevented spreading and the cells formed aggregate

Molecule: H-LRRWLEAK-OH (listed as Homo sapiens) [SEQ ID No. 2]
- spreading, migration and aggregation of k105 cells adherent to chondroadherin (K105 cells [1]): prevented spreading and induced cells to form aggregate

Molecule: H-QLRGLRRWLEAK-OH (listed as Homo sapiens) [SEQ ID No. 3]
- spreading, migration and aggregation of k105 cells adherent to chondroadherin (K105 cells [1]): prevented spreading and induced cells to form aggregates

Molecule: QLRGLRRW (listed as Homo sapiens)
- spreading, migration and aggregation of k105 cells adherent to chondroadherin (K105 cells [1]): no effect
